Results: PubChem BioAssay (NCI)
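In this assay, cells in 96-well plates receive the compound at five concentrations for 48 hours. Endpoints are linearly interpolated between the surrounding concentrations. TGI: concentration producing complete growth inhibition.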

Experiments:
Assay in all cases: NCI-60 cell line screen, 48 h
786-0 renal = system: 786-0 renal
A498 renal = system: A498 renal
A549 NSCLC = system: A549 NSCLC
ACHN renal = system: ACHN renal
BT-549 breast = system: BT-549 breast
CAKI-1 renal = system: CAKI-1 renal
CCRF-CEM leukemia = system: CCRF-CEM leukemia
COLO 205 colon = system: COLO 205 colon
DU-145 prostate = system: DU-145 prostate
EKVX NSCLC = system: EKVX NSCLC
HCC-2998 colon = system: HCC-2998 colon
HCT-116 colon = system: HCT-116 colon
HCT-15 colon = system: HCT-15 colon
HL-60(TB) leukemia = system: HL-60(TB) leukemia
HOP-62 NSCLC = system: HOP-62 NSCLC
HOP-92 NSCLC = system: HOP-92 NSCLC
HS 578T breast = system: HS 578T breast
HT29 colon = system: HT29 colon
IGROV1 ovarian = system: IGROV1 ovarian
K-562 leukemia = system: K-562 leukemia
LOX IMVI melanoma = system: LOX IMVI melanoma
M14 melanoma = system: M14 melanoma
MALME-3M melanoma = system: MALME-3M melanoma
MCF7 breast = system: MCF7 breast
MDA-MB-231 breast = system: MDA-MB-231 breast
MDA-MB-435 = system: MDA-MB-435
MDA-N = system: MDA-N
NCI-H226 lung = system: NCI-H226 lung
NCI-H23 lung = system: NCI-H23 lung
NCI-H460 lung = system: NCI-H460 lung
NCI-H522 lung = system: NCI-H522 lung
NCI/ADR-RES ovarian = system: NCI/ADR-RES ovarian
OVCAR-3 ovarian = system: OVCAR-3 ovarian
OVCAR-5 ovarian = system: OVCAR-5 ovarian
OVCAR-8 ovarian = system: OVCAR-8 ovarian
PC-3 prostate = system: PC-3 prostate
RPMI-8226 leukemia = system: RPMI-8226 leukemia
RXF 393 renal = system: RXF 393 renal
SF-268 CNS = system: SF-268 CNS
SF-295 CNS = system: SF-295 CNS
SF-539 CNS = system: SF-539 CNS
SK-MEL-2 melanoma = system: SK-MEL-2 melanoma
SK-MEL-28 melanoma = system: SK-MEL-28 melanoma
SK-MEL-5 melanoma = system: SK-MEL-5 melanoma
SK-OV-3 ovarian = system: SK-OV-3 ovarian
SN12C renal = system: SN12C renal
SNB-19 CNS = system: SNB-19 CNS
SR leukemia = system: SR leukemia
SW-620 colon = system: SW-620 colon
TK-10 renal = system: TK-10 renal
U251 CNS = system: U251 CNS
UACC-257 melanoma = system: UACC-257 melanoma
UACC-62 melanoma = system: UACC-62 melanoma
UO-31 renal = system: UO-31 renal
KM12 colon = system: KM12 colon
MOLT-4 leukemia = system: MOLT-4 leukemia
OVCAR-4 ovarian = system: OVCAR-4 ovarian
T-47D breast = system: T-47D breast

CC(C)(C)C1CCC2c3c([nH]c4ccccc34)C3C(=O)N(c4ccc(C(=O)O)cc4)C(=O)C3C2C1 (configuration not stated)
TGI (786-0 renal): 29.1 µM | TGI (A498 renal): 34.6 µM | TGI (A549 NSCLC): 25.8 µM | TGI (ACHN renal): 24.5 µM | TGI (BT-549 breast): 30.1 µM | TGI (CAKI-1 renal): 31 µM | TGI (CCRF-CEM leukemia): 12.5 µM | TGI (COLO 205 colon): 40.4 µM | TGI (DU-145 prostate): 34.7 µM | TGI (EKVX NSCLC): 39.7 µM | TGI (HCC-2998 colon): 29 µM | TGI (HCT-116 colon): 29.7 µM | TGI (HCT-15 colon): 25 µM | TGI (HL-60(TB) leukemia): 15.4 µM | TGI (HOP-62 NSCLC): 15.8 µM | TGI (HOP-92 NSCLC): 25.7 µM | TGI (HS 578T breast): 39 µM | TGI (HT29 colon): 28.7 µM | TGI (IGROV1 ovarian): 40.1 µM | TGI (K-562 leukemia): 17.9 µM | TGI (LOX IMVI melanoma): 28.8 µM | TGI (M14 melanoma): 37.3 µM | TGI (MALME-3M melanoma): 28.9 µM | TGI (MCF7 breast): 26.4 µM | TGI (MDA-MB-231 breast): 29.2 µM | TGI (MDA-MB-435): 11.1 µM | TGI (MDA-N): 24.7 µM | TGI (NCI-H226 lung): 40.3 µM | TGI (NCI-H23 lung): 40.8 µM | TGI (NCI-H460 lung): 35.4 µM | TGI (NCI-H522 lung): 41.6 µM | TGI (NCI/ADR-RES ovarian): 36 µM | TGI (OVCAR-3 ovarian): 25.8 µM | TGI (OVCAR-5 ovarian): 36.5 µM | TGI (OVCAR-8 ovarian): 26.6 µM | TGI (PC-3 prostate): 26.3 µM | TGI (RPMI-8226 leukemia): > 100 µM | TGI (RXF 393 renal): 29.5 µM | TGI (SF-268 CNS): 28.4 µM | TGI (SF-295 CNS): 23.4 µM | TGI (SF-539 CNS): 34.8 µM | TGI (SK-MEL-2 melanoma): 29.1 µM | TGI (SK-MEL-28 melanoma): 30.3 µM | TGI (SK-MEL-5 melanoma): 25.7 µM | TGI (SK-OV-3 ovarian): 32.1 µM | TGI (SN12C renal): 25.6 µM | TGI (SNB-19 CNS): 34.6 µM | TGI (SR leukemia): > 100 µM | TGI (SW-620 colon): 26.5 µM | TGI (TK-10 renal): 31.3 µM | TGI (U251 CNS): 26.2 µM | TGI (UACC-257 melanoma): 28.3 µM | TGI (UACC-62 melanoma): 30.4 µM | TGI (UO-31 renal): 30.4 µM

COC(=O)c1c(C(=O)OC)c2ccc(-c3ccc(Cl)cc3)nn2c1C(=O)c1ccc([N+](=O)[O-])cc1
TGI (786-0 renal): > 100 µM | TGI (A498 renal): > 100 µM | TGI (A549 NSCLC): > 100 µM | TGI (ACHN renal): > 100 µM | TGI (CAKI-1 renal): 76.2 µM | TGI (CCRF-CEM leukemia): > 100 µM | TGI (COLO 205 colon): > 100 µM | TGI (DU-145 prostate): > 100 µM | TGI (EKVX NSCLC): 84.4 µM | TGI (HCC-2998 colon): > 100 µM | TGI (HCT-116 colon): > 100 µM | TGI (HCT-15 colon): > 100 µM | TGI (HL-60(TB) leukemia): > 100 µM | TGI (HOP-62 NSCLC): > 100 µM | TGI (HOP-92 NSCLC): 39.5 µM | TGI (HT29 colon): > 100 µM | TGI (K-562 leukemia): > 100 µM | TGI (KM12 colon): > 100 µM | TGI (LOX IMVI melanoma): > 100 µM | TGI (M14 melanoma): > 100 µM | TGI (MCF7 breast): > 100 µM | TGI (MDA-MB-231 breast): > 100 µM | TGI (MDA-MB-435): > 100 µM | TGI (MDA-N): > 100 µM | TGI (MOLT-4 leukemia): 82.6 µM | TGI (NCI-H226 lung): > 100 µM | TGI (NCI-H23 lung): > 100 µM | TGI (NCI-H460 lung): > 100 µM | TGI (NCI-H522 lung): 37.3 µM | TGI (NCI/ADR-RES ovarian): > 100 µM | TGI (OVCAR-3 ovarian): > 100 µM | TGI (OVCAR-4 ovarian): > 100 µM | TGI (OVCAR-5 ovarian): > 100 µM | TGI (OVCAR-8 ovarian): > 100 µM | TGI (PC-3 prostate): > 100 µM | TGI (RPMI-8226 leukemia): 55.3 µM | TGI (RXF 393 renal): 55.5 µM | TGI (SF-268 CNS): > 100 µM | TGI (SF-295 CNS): > 100 µM | TGI (SF-539 CNS): > 100 µM | TGI (SK-MEL-2 melanoma): > 100 µM | TGI (SK-MEL-28 melanoma): > 100 µM | TGI (SK-MEL-5 melanoma): > 100 µM | TGI (SK-OV-3 ovarian): > 100 µM | TGI (SN12C renal): > 100 µM | TGI (SNB-19 CNS): > 100 µM | TGI (SW-620 colon): > 100 µM | TGI (T-47D breast): > 100 µM | TGI (TK-10 renal): 57.9 µM | TGI (U251 CNS): > 100 µM | TGI (UACC-257 melanoma): > 100 µM | TGI (UACC-62 melanoma): > 100 µM | TGI (UO-31 renal): > 100 µM
